Experimental data published in patent US7160884B2, “1-/2-substituted-1H/-2H-[1,2,3]triazolo[4,5-g]phthalazine-4,9-dione compound, process for the preparation thereof and pharmaceutical composition comprising the same” (EWHA University-Industry Collaboration Foundation, priority 2005, dated 2007).
Read-outs that look alike come from different tables or passages of the source.

How the values were obtained:
[1] = system: human lung cancer cell line (A549); assay: SRB cytotoxicity evaluation, A549; assay type: cell-based; details: for IC50: SRB, A549
Experimental: (§1) To verify the cytotoxic effect of the compounds prepared in Examples above, cytotoxicity was induced in cancer cells and SRB (Sulforhodamin B dye-staining) evaluation was conducted.
(§2) Each compound prepared in Examples was dissolved in 10% DMSO. 10 μL of the solution and 190 μL of cell suspension (5×10^4 cells/ml) were placed in standard 96-well plate and cultured in 5% CO2 condition at 37° C. for 3 days. 190 μL of the same cell suspension was placed in at least 16 wells, followed by cultivation at 37° C. for 30 minutes, and used as zero-day control. After cultivation for a predetermined period of time, cells were fixed by adding 50 μL of 50% trichloroacetic acid in each well, followed by incubation at 4° C. for 30 minutes. Cells were washed with water 5 times, dried at room temperature, and stained by adding 100 μL of 1% acetic acid solution containing […] in each well, and then washed with 1% acetic acid after 1 hour and dried in air. 200 μL of 10 mM Tris-base was added in each well and stirred well, thereby dissolving the bound staining agent, followed by measurement of absorbance at 515 nm by using ELISA reader. Viability was determined based on the difference between the zero-day control group and 10% DMSO-treated control group. Viability about ellipticin and doxorubicin were also measured for comparison.
(§3) Meanwhile, SRB evaluation was also conducted for human lung cancer cell line (A549), human ovarian cancer cell line (SK-OV-3), human melanoma cell line (SK-MEL-2), human central nervous system tumor cell line (XF498), and human colon cancer cell line (HCT15), and the results are shown in TABLE 2.

[2] = system: human colon cancer cell line (Col2); assay: SRB cytotoxicity evaluation, Col2; assay type: cell-based; details: 3 days culture
Experimental: as §1
(§4) Cancer cell lines used herein (NCI, US) was human gastric cancer cell line (SNU-638), human colon cancer cell line (Col2), human fibrosarcoma cell line (HT1080), and human myelogenous leukemia cell line (HL-60).
as §2

[3] = system: human fibrosarcoma cell line (HT1080); assay: SRB cytotoxicity evaluation, HT1080; assay type: cell-based; details: for IC50: SRB, 3 days culture, HT1080
Experimental: as §1, §4, §2

[4] = system: human ovarian cancer cell line (SK-OV-3); assay: SRB cytotoxicity evaluation, SK-OV-3; assay type: cell-based; details: for IC50: SRB, SK-OV-3
Experimental: as §1, §2, §3

[5] = system: human central nervous system tumor cell line (XF498); assay: SRB cytotoxicity evaluation, XF498; assay type: cell-based; details: for IC50: SRB, XF498
Experimental: as §1, §2, §3

[6] = system: human myelogenous leukemia cell line (HL-60); assay: SRB cytotoxicity evaluation, HL-60; assay type: cell-based; details: 3 days culture
Experimental: as §1, §4, §2

[7] = system: human gastric cancer cell line (SNU-638); assay: SRB cytotoxicity evaluation, SNU-638; assay type: cell-based; details: 3 days culture
Experimental: as §1, §4, §2

[8] = system: human colon cancer cell line (HCT15); assay: SRB cytotoxicity evaluation, HCT15; assay type: cell-based
Experimental: as §1, §2, §3

[9] = system: human melanoma cell line (SK-MEL-2); assay: SRB cytotoxicity evaluation, SK-MEL-2; assay type: cell-based; details: for IC50: SRB, SK-MEL-2
Experimental: as §1, §2, §3

[10] = system: human gastric cancer adenocarcinoma cell line; details: cited from earlier work
[11] = comparison among tested compounds, in words

Row | SMILES | IC50 ([1]; Homo sapiens) [nM] | IC50 ([2]; Homo sapiens, 72 h) [nM] | IC50 ([3]; Homo sapiens, HT-1080, 72 h) [nM] | IC50 ([4]; Homo sapiens) [nM] | IC50 ([5]; Homo sapiens) [nM] | IC50 ([6]; Homo sapiens, 72 h) [nM] | IC50 ([7]; Homo sapiens, 72 h) [nM] | IC50 ([8]; Homo sapiens, HCT-15) [nM] | IC50 ([9]; Homo sapiens) [nM] | further results
1 | Cn1nc2c(n1)C(=O)c1cnncc1C2=O [Example 2b, 2-methyl-2H-[1,2,3]triazolo[4,5-g]phthalazin-4,9-dione] | 2 | 132 | 7.8 | 0.4 | 4 | 124 | 54 | 20 | 2 | cytotoxicity rank against A549 [1, 11]: highest cytotoxicity; cytotoxicity rank against HT1080 [3, 11]: highest cytotoxicity; cytotoxicity rank against SK-OV-3 [4, 11]: highest cytotoxicity; cytotoxicity rank against XF498 [5, 11]: highest cytotoxicity; cytotoxicity rank against SK-MEL-2 [9, 11]: highest cytotoxicity
2 | CCCCn1nnc2c1C(=O)c1cnncc1C2=O [Example 5a, 1-n-butyl-1H-[1,2,3]triazolo[4,5-g]phthalazin-4,9-dione] | 81 | 421 | 99 | 21 | 181 | 89 | 155 | 177 | 23 | –
3 | COc1cccc2c1C(=O)c1c(O)c3c(c(O)c1C2=O)C[C@@](O)(C(=O)CO)C[C@@H]3O[C@H]1C[C@H](N)[C@H](O)[C@H](C)O1 [Doxorubicin, reference compound] | 22 | 98 | 22 | 41 | 44 | 44 | 52 | 251 | 19 | –
4 | O=C1c2cnncc2C(=O)c2[nH]nnc21 [Example 1b, 1H-[1,2,3]triazolo[4,5-g]phthalazin-4,9-dione] | 9020 | > 5000 | > 5000 | 7640 | > 10000 | > 5000 | > 5000 | > 10000 | > 10000 | –
5 | Cc1nc2c(n1-c1ccc(Br)cc1)C(=O)c1nccnc1C2=O [2-methyl-4,9-dehydro-1-(4-bromophenyl)-1H-imidazo[4,5-g]-quinoxaline-4,9-dione] | – | – | – | – | – | – | – | – | – | cytotoxicity compared with cisplatin or doxorubicin [10]: higher than that of cisplatin or doxorubicin
6 | CCn1nc2c(n1)C(=O)c1cnncc1C2=O [Example 3b, 2-ethyl-2H-[1,2,3]triazolo[4,5-g]phthalazin-4,9-dione] | 18 | 170 | 204 | 3 | 17 | 90 | 46 | 18 | 4 | –
7 | COc1ccc(Cn2nnc3c2C(=O)c2cnncc2C3=O)cc1 [Example 1a, 1-(4-methoxybenzyl)-1H-[1,2,3]triazolo[4,5-g]phthalazin-4,9-dione] | 54 | 2380 | 330 | 12 | 118 | 130 | 257 | 59 | 41 | –
8 | CCCn1nc2c(n1)C(=O)c1cnncc1C2=O [Example 4b, 2-n-propyl-2H-[1,2,3]triazolo[4,5-g]phthalazin-4,9-dione] | 19 | 57 | 33 | 9 | 18 | 157 | 43 | 18 | 9 | –
9 | Cc1c2ccncc2c(C)c2c1[nH]c1ccccc12 [Ellipticin, reference compound] | – | – | – | – | – | – | – | – | – | IC50 [1]: 1320 nM; IC50 [2]: 2620 nM; IC50 [3]: 1930 nM; IC50 [4]: 1470 nM; IC50 [5]: 3640 nM; IC50 [6]: 3370 nM; IC50 [7]: 2990 nM; IC50 [8]: 3720 nM; IC50 [9]: 2410 nM
10 | Cn1nnc2c1C(=O)c1cnncc1C2=O [Example 2a, 1-methyl-1H-[1,2,3]triazolo[4,5-g]phthalazin-4,9-dione] | 4 | 311 | 73 | 3 | 35 | 82 | 241 | 103 | 8 | –
11 | CCCCn1nc2c(n1)C(=O)c1cnncc1C2=O [Example 5b, 2-n-butyl-2H-[1,2,3]triazolo[4,5-g]phthalazin-4,9-dione] | 18 | 66 | 30 | 17 | 19 | 151 | 50 | 18 | 15 | –
12 | CCCn1nnc2c1C(=O)c1cnncc1C2=O [Example 4a, 1-n-propyl-1H-[1,2,3]triazolo[4,5-g]phthalazin-4,9-dione] | 26 | 353 | 75 | 14 | 85 | 83 | 212 | 176 | 20 | –
13 | CCn1nnc2c1C(=O)c1cnncc1C2=O [Example 3a, 1-ethyl-1H-[1,2,3]triazolo[4,5-g]phthalazin-4,9-dione] | 6 | 341 | 68 | 3 | 34 | 56 | 126 | 39 | 8 | –
